Measured values published in ChEMBL document CHEMBL3784917, “Recent Progress in Histone Demethylase Inhibitors” (J Med Chem, 2016).

Legend:
[1] = target: T1, Lysine-specific demethylase 4A (Homo sapiens, UniProt O75164)
T1 sequence (O75164 whole entry): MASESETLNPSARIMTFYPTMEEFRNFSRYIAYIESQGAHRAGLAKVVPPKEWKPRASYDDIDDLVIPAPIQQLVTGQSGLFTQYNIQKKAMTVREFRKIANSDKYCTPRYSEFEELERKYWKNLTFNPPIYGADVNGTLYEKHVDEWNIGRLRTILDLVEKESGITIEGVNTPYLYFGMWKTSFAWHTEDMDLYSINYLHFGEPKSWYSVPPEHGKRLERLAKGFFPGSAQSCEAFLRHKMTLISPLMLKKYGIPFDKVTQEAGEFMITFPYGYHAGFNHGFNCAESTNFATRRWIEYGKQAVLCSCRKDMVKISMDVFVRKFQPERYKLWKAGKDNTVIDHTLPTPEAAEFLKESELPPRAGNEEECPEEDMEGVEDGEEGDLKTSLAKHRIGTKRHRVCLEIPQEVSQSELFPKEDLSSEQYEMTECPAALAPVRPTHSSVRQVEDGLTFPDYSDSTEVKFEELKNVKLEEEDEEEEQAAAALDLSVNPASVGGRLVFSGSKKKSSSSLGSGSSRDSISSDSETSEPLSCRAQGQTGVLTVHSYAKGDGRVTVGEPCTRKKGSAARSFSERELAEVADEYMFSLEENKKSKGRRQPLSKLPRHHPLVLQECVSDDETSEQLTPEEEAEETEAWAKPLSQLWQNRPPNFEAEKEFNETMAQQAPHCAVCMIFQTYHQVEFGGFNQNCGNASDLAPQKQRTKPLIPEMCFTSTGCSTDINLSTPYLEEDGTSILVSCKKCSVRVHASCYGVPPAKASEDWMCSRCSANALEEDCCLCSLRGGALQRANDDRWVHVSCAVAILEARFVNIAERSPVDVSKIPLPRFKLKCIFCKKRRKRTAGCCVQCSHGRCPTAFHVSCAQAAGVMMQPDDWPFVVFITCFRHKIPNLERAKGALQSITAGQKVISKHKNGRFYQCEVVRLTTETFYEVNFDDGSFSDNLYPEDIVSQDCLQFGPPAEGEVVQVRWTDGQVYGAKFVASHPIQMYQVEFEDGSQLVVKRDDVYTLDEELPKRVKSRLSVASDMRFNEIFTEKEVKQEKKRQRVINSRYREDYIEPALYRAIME

[2] = target: T2, Lysine-specific demethylase 5A (Homo sapiens, UniProt P29375); assay: biochemical
T2 sequence (P29375 whole entry): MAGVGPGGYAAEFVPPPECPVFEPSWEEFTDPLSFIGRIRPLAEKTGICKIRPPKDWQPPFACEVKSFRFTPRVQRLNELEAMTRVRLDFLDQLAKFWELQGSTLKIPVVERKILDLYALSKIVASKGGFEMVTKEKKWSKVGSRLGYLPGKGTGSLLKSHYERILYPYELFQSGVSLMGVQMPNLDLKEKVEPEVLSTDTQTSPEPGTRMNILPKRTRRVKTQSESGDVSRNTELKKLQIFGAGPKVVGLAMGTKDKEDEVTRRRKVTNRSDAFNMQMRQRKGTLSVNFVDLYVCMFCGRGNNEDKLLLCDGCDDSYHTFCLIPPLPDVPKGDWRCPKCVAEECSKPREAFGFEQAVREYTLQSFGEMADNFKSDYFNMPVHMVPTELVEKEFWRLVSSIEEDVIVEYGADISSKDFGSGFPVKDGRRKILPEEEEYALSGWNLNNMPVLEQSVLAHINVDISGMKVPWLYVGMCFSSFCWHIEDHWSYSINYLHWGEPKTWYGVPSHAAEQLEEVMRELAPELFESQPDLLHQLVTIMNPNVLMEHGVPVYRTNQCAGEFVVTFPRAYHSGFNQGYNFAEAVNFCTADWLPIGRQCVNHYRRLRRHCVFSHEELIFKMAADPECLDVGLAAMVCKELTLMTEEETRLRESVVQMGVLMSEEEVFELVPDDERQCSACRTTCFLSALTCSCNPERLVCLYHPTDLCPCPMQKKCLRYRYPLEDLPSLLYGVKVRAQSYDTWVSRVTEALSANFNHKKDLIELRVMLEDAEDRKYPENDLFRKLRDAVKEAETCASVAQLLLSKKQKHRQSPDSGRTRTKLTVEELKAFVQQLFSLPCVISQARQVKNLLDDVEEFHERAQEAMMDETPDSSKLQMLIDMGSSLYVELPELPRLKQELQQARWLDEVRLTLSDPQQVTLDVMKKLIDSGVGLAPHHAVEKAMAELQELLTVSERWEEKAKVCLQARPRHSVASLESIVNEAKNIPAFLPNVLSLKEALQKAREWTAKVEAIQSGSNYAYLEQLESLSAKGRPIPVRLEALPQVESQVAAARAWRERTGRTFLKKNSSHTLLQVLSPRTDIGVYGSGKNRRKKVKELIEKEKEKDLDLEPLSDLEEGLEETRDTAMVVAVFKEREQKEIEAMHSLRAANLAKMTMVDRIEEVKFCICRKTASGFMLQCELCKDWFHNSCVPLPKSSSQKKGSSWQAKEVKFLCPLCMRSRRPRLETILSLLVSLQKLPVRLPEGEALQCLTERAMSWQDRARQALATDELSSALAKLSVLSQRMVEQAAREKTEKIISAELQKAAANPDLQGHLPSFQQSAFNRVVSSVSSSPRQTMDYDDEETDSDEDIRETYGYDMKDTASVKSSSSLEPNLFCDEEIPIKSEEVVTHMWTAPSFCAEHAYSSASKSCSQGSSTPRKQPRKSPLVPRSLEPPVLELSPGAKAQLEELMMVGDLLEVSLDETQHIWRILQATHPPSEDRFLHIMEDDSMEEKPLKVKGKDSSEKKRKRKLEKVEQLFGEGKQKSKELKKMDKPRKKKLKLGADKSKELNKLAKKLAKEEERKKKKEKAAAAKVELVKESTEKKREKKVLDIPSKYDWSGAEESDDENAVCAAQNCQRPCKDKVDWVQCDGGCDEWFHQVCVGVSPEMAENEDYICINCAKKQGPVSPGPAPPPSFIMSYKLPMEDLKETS

[3] = target: T3, Lysine-specific demethylase 4C (Homo sapiens, UniProt Q9H3R0); assay: biochemical
T3 sequence (Q9H3R0 whole entry): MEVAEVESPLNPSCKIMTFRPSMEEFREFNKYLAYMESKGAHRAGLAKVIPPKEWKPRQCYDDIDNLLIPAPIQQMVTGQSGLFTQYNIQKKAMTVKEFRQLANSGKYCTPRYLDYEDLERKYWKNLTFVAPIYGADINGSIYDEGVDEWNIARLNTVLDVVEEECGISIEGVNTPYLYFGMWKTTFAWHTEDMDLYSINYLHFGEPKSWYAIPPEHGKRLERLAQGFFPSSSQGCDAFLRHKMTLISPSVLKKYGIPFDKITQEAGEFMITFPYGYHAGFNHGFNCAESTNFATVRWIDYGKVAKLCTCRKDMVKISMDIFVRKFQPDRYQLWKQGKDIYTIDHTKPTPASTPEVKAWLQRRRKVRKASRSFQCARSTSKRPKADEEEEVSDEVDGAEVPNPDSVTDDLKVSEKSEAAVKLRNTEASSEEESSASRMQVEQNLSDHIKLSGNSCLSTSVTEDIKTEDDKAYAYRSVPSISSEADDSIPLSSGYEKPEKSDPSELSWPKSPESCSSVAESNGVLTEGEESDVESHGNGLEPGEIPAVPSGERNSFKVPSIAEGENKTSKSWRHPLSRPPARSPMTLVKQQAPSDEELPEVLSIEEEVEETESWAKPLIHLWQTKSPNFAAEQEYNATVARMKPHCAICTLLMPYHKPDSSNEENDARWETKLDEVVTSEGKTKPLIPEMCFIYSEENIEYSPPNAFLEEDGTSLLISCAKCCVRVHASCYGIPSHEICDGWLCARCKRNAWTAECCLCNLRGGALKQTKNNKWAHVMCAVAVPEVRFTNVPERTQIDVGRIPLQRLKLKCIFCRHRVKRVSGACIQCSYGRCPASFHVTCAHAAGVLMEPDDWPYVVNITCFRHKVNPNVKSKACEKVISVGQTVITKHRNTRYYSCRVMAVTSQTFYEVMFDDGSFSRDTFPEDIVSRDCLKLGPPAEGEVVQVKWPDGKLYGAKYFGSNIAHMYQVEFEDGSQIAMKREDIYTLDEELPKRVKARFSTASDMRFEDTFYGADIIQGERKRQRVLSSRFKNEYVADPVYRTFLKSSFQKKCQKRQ

[4] = target: T4, Lysine-specific demethylase 5B (Homo sapiens, UniProt Q9UGL1); assay: biochemical
T4 sequence (Q9UGL1 whole entry): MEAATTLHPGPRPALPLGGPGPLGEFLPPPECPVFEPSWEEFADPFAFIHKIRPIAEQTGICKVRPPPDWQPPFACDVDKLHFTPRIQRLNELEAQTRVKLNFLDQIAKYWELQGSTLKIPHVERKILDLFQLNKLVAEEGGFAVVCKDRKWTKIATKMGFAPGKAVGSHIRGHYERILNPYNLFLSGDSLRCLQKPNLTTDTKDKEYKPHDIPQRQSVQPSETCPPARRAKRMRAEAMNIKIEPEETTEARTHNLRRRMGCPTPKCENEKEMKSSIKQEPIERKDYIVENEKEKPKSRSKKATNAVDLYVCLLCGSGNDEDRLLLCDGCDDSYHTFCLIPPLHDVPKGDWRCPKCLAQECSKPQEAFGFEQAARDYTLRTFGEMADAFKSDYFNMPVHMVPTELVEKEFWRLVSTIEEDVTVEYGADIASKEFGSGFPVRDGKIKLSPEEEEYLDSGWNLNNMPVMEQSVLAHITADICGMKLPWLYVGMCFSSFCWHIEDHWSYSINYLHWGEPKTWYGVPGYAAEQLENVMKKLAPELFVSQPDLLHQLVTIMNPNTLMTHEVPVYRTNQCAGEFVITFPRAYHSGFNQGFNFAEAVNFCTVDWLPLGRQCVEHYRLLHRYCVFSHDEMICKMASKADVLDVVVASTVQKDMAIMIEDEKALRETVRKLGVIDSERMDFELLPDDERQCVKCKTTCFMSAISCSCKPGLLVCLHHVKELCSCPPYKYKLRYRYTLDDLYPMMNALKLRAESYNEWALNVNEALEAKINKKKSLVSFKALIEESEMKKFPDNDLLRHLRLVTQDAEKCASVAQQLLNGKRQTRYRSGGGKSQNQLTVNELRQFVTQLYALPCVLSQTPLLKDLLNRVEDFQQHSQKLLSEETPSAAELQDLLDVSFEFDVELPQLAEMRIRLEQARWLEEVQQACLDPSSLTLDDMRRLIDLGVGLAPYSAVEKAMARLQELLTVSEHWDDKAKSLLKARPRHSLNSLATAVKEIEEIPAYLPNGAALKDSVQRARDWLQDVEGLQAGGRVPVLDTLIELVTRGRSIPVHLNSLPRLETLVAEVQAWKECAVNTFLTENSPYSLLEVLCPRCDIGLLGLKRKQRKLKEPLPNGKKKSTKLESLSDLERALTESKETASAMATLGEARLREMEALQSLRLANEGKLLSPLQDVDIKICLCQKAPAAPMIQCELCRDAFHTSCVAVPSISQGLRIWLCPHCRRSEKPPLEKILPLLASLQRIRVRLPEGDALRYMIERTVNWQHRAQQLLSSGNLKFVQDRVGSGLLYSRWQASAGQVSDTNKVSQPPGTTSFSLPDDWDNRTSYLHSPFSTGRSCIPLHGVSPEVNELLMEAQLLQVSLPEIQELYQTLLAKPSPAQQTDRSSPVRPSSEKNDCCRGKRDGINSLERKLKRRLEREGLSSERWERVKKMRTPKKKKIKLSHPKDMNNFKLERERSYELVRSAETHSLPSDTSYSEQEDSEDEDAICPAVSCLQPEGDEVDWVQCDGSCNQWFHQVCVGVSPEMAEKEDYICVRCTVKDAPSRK

[5] = target: Lysine-specific histone demethylase 1A (Homo sapiens, UniProt O60341)
[6] = target: T2, Lysine-specific demethylase 5A
[7] = target: T4, Lysine-specific demethylase 5B
[8] = target: T5, Lysine-specific demethylase 2B (Homo sapiens, UniProt Q8NHM5); assay: biochemical
T5 sequence (Q8NHM5 whole entry): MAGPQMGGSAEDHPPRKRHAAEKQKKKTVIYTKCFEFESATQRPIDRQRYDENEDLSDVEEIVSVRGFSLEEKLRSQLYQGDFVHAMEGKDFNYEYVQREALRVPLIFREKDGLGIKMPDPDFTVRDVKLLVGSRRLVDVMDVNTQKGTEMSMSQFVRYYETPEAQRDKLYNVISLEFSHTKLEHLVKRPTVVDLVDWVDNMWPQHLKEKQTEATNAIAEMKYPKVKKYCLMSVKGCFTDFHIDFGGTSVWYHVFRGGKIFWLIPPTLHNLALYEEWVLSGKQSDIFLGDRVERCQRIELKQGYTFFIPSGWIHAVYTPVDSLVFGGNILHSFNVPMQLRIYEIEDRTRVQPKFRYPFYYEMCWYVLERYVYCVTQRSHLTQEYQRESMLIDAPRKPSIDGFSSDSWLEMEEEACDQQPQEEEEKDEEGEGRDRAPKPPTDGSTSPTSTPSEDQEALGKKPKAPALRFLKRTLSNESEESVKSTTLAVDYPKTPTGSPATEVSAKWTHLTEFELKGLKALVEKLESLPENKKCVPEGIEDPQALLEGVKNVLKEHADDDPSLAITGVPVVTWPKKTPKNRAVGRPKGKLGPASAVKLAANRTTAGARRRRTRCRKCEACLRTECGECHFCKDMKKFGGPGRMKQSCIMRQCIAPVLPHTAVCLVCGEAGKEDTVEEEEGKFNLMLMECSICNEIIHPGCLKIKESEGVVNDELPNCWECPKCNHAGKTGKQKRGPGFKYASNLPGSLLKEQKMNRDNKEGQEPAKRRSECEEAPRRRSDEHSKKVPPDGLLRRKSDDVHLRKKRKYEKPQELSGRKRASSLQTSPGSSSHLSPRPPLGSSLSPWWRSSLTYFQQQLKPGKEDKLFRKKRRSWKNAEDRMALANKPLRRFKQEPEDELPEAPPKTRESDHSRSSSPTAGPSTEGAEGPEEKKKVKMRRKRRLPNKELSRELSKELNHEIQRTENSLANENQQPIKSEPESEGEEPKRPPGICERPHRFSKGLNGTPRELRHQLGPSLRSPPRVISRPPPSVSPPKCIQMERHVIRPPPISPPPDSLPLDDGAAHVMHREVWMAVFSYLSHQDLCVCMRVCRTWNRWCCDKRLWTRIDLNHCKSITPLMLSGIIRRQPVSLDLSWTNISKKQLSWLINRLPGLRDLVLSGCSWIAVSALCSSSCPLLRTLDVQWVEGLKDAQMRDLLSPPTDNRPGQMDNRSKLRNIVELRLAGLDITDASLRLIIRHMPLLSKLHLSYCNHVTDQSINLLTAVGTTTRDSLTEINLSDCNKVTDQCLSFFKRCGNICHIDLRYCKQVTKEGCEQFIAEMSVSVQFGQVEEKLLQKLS

[9] = cells; settings: Homo sapiens, KYSE-150, 168 h
[10] = target: T4, Lysine-specific demethylase 5B; remark: listed apart in the source
[11] = target: T5, Lysine-specific demethylase 2B; assay: biochemical; remark: listed apart in the source
[12] = target: Lysine-specific demethylase 6A (Homo sapiens, UniProt O15550)
Sequence of Lysine-specific demethylase 6A (O15550 whole entry): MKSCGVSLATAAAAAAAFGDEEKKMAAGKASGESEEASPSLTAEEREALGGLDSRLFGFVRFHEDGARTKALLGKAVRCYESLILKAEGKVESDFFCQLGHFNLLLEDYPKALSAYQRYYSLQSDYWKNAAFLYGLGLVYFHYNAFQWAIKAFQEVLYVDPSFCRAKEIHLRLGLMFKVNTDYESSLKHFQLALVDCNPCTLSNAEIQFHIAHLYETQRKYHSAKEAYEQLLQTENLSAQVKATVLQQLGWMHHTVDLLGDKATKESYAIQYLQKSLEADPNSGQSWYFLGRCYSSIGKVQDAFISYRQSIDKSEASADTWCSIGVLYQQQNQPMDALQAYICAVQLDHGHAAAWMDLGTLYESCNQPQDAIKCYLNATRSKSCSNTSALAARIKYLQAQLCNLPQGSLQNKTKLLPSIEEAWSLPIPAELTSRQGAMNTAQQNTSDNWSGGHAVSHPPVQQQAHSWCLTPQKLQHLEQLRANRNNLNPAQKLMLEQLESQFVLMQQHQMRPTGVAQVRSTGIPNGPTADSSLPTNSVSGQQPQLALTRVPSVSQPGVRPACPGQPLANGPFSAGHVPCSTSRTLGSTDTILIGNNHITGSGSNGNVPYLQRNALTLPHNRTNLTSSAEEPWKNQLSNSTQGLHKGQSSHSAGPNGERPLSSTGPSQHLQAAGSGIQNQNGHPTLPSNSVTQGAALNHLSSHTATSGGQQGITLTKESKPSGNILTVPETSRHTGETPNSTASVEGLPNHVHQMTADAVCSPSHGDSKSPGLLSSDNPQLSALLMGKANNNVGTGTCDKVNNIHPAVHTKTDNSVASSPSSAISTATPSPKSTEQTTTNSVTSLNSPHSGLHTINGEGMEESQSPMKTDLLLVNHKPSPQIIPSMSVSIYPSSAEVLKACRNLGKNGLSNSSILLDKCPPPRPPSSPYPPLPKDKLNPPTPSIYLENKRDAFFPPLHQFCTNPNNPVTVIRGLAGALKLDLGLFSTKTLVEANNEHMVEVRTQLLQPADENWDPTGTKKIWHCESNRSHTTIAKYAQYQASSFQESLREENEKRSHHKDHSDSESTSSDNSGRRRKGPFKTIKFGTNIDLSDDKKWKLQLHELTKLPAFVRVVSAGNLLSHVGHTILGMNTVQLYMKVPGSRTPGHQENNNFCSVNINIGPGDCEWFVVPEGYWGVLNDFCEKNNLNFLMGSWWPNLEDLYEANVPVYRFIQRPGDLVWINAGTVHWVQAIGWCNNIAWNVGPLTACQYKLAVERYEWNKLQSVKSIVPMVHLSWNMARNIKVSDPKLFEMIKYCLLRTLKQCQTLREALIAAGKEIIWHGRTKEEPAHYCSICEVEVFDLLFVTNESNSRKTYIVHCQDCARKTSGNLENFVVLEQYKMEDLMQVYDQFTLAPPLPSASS

[13] = target: T3, Lysine-specific demethylase 4C

| Structure (SMILES) | IC50 [2] [nM] | IC50 [3] [nM] | IC50 [4] [nM] | IC50 [6] [nM] | IC50 [7] [nM] | further results |
| --- | --- | --- | --- | --- | --- | --- |
| O=C(O)CC1(N2CCC(N[C@@H]3C[C@H]3c3ccccc3)CC2)CN(CCC(F)(F)F)C1 |  |  |  |  |  | IC50 [5]: < 100 nM |
| Cc1cc(Cl)ccc1COc1ccnn1-c1cc(C(=O)O)ccn1 | < 100 | 100 | < 100 | < 100 | < 100 | IC50 [8]: 100 nM |
| COC(=O)c1ccnc2cc(OCc3ccc(Cl)c(OCC4CC4)c3)[nH]c12 |  |  |  |  |  | IC50 [9]: < 100 nM |
| O=C(O)c1ccnc(-n2ncc(CCO)c2OCc2ccc(F)cc2)c1 | < 100 | 1000 | < 100 |  |  |  |
| CCN1CCC[C@H](CNCc2cc(C(=O)O)ccn2)C1=O |  |  |  |  |  | IC50 [10]: < 250 nM; IC50 [11]: < 250 nM; IC50 [12]: > 2500 nM |
| Nc1ccnc(N2CCC(N[C@@H]3C[C@H]3c3ccccc3)CC2)n1 |  |  |  |  |  | IC50 [5]: < 100 nM |
| Cn1cnc(-c2cc(C(=O)O)ccn2)c1 | < 100 | < 100 | < 100 | > 10000 | > 10000 | IC50 [1]: < 100 nM; IC50 [8]: < 100 nM |
| COC1(CN[C@@H]2C[C@H]2c2ccccc2)CCN(S(=O)(=O)c2ccn(C)n2)CC1 |  |  |  |  |  | IC50 [5]: < 100 nM |
| O=C(O)c1cnnc(CNCC(=O)N2CCCCC2)c1 |  |  |  |  |  | IC50 [13]: < 250 nM; IC50 [10]: < 250 nM; IC50 [12]: > 2500 nM |
| CNC(=O)c1ccnc2cc(OCc3ccc(Cl)c(OC(F)(F)F)c3)[nH]c12 |  |  |  |  |  | IC50 [9]: < 100 nM |
| Cn1nc(Nc2cnccc2C(=O)O)c2cccnc21 | < 100 | 100 | < 100 | 100 | 100 |  |
| O=C(O)c1ccncc1NCC12CC3CC(CC(C3)C1)C2 | 100 | < 100 | 100 |  |  | IC50 [9]: > 10000 nM |
| COC(=O)c1ccnc2cc(OCc3ccc(Cl)c(OC(F)(F)F)c3)[nH]c12 |  |  |  |  |  | IC50 [9]: < 100 nM |
| Cn1cnc(-c2cc(-c3nn[nH]n3)ccn2)c1 | 100 | > 10000 | 100 | > 10000 | > 10000 | IC50 [1]: > 10000 nM; IC50 [8]: < 100 nM |
| O=C(O)c1ccnc(CNCc2nccn2C/C=C/c2ccccc2)c1 |  |  |  |  |  | IC50 [13]: > 2500 nM; IC50 [10]: < 250 nM; IC50 [12]: > 2500 nM |
| COC(=O)c1ccnc2cc(OCc3ccc(Cl)c(OC)c3)[nH]c12 |  |  |  |  |  | IC50 [9]: < 100 nM |
| O=C(O)c1ccncc1Nc1nn(C2CCCC2)c2ccc(F)cc12 | < 100 | 100 | < 100 | 100 | 100 |  |
| Cn1cnc(-c2cc(C(=O)O)ccn2)c1-c1ccc(OCC2CC2)cc1 | < 100 | 100 | < 100 | 1000 | 1000 | IC50 [8]: 100 nM |
| CC(C)Cn1nc(Nc2cnccc2C(=O)NC#N)c2cc(F)ccc21 | < 100 | 1000 | < 100 |  |  |  |
| CN(C)CC(=O)N1CCC(CN[C@@H]2C[C@H]2c2ccccc2)(Cc2cccc(C#N)c2)CC1 |  |  |  |  |  | IC50 [5]: < 100 nM |
| COc1ccc(-c2c(-c3cc(C(=O)O)ccn3)ncn2C)cc1 | 100 | 1000 | 100 | 1000 | 1000 | IC50 [8]: 100 nM |

Continued, in another order:

| IC50 [2] [nM] | IC50 [3] [nM] | IC50 [4] [nM] | IC50 [6] [nM] | IC50 [7] [nM] | Structure (SMILES) | further results |
| --- | --- | --- | --- | --- | --- | --- |
| 1000 | < 100 | 1000 |  |  | COc1cc(COc2cc3nccc(C(=O)O)c3[nH]2)ccc1Cl | IC50 [1]: 100 nM |
| < 100 | < 100 | < 100 | 100 | 100 | O=C(O)c1ccnc(-n2nccc2OCc2ccc(Cl)cc2)c1 |  |
|  |  |  | 100 | 100 | COC(=O)c1ccnc(-n2nccc2OCc2ccc(Cl)cc2)c1 |  |
| 100 | < 100 | < 100 |  |  | O=C(O)c1ccnc2cc(OCc3ccc(Cl)c(OCC4CC4)c3)[nH]c12 | IC50 [1]: 1000 nM |
| 100 | < 100 | < 100 |  |  | O=C(O)c1ccnc2cc(OCc3ccc(Cl)c(OC(F)(F)F)c3)[nH]c12 | IC50 [1]: 100 nM |
